# In patent publication US8993619B2, “Cyclic bridgehead ether DGAT1 inhibitors” (Novartis AG, priority 2012, dated 2015):
# Tests used:
# DGAT1 in C2C12 cells = target: T1, DGAT1 in C2C12 cells (Mus musculus, UniProt Q9Z2A7); test: Cellular assay to measure activity of DGAT1 inhibitors in mammalian cells (C2C12); assay type: cell-based; details: C2C12 mouse skeletal muscle cells, 250 μM oleate, 2 h, LC/MS readout
# T1 construct: endogenous in cells; host or cells: C2C12 mouse skeletal muscle cells
# T1 sequence (Q9Z2A7 1-498): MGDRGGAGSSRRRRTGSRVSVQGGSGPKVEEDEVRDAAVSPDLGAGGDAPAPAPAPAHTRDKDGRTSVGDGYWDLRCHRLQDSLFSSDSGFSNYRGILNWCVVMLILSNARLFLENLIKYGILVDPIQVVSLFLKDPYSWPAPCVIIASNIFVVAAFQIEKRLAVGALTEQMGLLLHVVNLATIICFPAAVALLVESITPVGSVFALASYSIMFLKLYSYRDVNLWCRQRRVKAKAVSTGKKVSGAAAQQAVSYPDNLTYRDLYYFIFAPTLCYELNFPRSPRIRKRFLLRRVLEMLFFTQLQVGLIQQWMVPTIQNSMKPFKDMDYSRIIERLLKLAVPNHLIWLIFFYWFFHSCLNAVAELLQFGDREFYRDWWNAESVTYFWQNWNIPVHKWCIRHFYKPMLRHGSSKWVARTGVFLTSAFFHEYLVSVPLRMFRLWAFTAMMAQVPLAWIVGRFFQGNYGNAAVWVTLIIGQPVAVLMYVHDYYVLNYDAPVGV
# Procedure: C2C12 cells are an immortal mouse skeletal muscle cell line showing an 8-fold enrichment form DGAT1 versus DGAT2. C2C12 cells were routinely cultured in 150 cm2 flasks with DMEM (25 mM glucose) containing 10% FBS, 4 m M L-glutamine, 100 U/ml penicillin and 100 μg/ml streptomycin (30 ml per flask), at 37° C., 5% CO2 and 95% humidity. All studies were performed on cells at passage 10 or less.
# C2C12 cells were seeded in 96-well plates in DMEM containing […] glucose and 10% FBS, 18 h (at 37° C.) prior to assay (all wells of the plate are used). […] Compounds were added at 1:3 dilution, 11 points and DMSO control, the starting concentration was usually 40 μM. Each point was dosed in quadruplicate allowing 2 compounds to be dosed per plate. The medium was removed at the end of the incubation and 200 μl/well of 1-butanol added. The 1-butanol contained an internal standard, tripalmitolein (2 μM). The plates were sealed with an adhesive plate sealer and left at room temperature for at least 30 min, then spun down at 209×g for 5 min.
# Butanolic extracts were transferred to 384-well LC-MS plates (80 μl/well) and the plate heatsealed with a foil plate sealer. The 384-well plates containing sample were spun down at 209×g for 5 min prior to loading on the LC-MS.
# Where indicated, tripalmitolein was used as an internal standard to control for instrument variation. HPLC conditions as above.
# human (His)6DGAT1 = target: T2, human (His)6DGAT1 (Homo sapiens, UniProt O75907); test: DGAT1 Inhibition Assay; assay type: biochemical; details: membrane preparation from Sf9 cells overexpressing human (His)6DGAT1; LC/MS/MS readout
# T2 construct: made in house; host or cells: Sf9 insect cells (membrane preparation)
# T2 sequence (O75907 1-488): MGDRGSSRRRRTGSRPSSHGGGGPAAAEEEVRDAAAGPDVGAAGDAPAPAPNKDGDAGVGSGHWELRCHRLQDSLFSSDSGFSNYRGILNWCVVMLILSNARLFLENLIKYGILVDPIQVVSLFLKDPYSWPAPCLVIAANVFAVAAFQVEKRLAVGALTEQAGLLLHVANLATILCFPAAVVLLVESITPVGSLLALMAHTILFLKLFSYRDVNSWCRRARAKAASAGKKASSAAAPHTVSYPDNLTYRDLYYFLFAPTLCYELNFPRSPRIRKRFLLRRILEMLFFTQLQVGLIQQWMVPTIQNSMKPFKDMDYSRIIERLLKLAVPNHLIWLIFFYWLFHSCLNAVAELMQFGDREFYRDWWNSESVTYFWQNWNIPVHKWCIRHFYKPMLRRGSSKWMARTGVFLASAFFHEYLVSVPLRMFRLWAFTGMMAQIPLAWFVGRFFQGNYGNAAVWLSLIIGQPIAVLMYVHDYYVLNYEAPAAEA
# Procedure: The enzyme preparation used in this assay is a membrane preparation from Sf9 cells overexpressing human (His)6DGAT1. During all steps samples were chilled to 4° C. Sf9 cells expressing human (His)6DGAT1 were thawed at room temperature and re-suspended at a 10:1 ratio (mL buffer/g of cells) in 50 mM HEPES, 1× Complete Protease Inhibitor, pH 7.5. The re-suspended pellet was homogenized for 1 min using a Brinkman PT 10/35 homogenizer with a 20 mm generator. Cells were lysed using Avestin Emulsiflex (chilled to 4° C.) at 10000-15000 psi. Lysate was centrifuged at 100,000×g for 1 h at 4° C. Supernatant was removed and pellets were re-suspended in 50 mM HEPES, 1× Complete Protease Inhibitor, pH 7.5 at ⅙ the volume of supernatant. Re-suspended pellets were pooled and homogenized with 10 strokes of a Glas-Col motor driven teflon pestle on setting 70. The protein concentration of the membrane preparation was quantified using BCA protein assay with 1% SDS. The membrane preparation was aliquoted, frozen on dry ice, and stored at −80° C.
# For 50 mL, 25 mL of 0.2 M HEPES stock buffer, 0.5 mL of 1 M MgCl2 ([…]), and 24.5 mL of milli-Q H2O are added to the 55 mL Wheaton Potter-Elvehjem homogenizer. Enzyme preparation (0.1 mL) is added to buffer and the mixture is homogenized with 5 strokes on ice using the Glas-Col variable speed homogenizer system on setting 70.
# For 50 mL, 0.5 mL 10 mM diolein is added to 9.5 mL of EtOH in a 50 mL Falcon screw cap conical centrifuge tube. Five mL of 10 mM sodium acetate pH 4.5 is added followed by 0.5 mL of 10 mM oleoyl-CoA. Finally, the remaining 4.5 mL of 10 mM sodium acetate pH 4.5 is added followed by 30 mL of milli-Q H20. The solution should be gently agitated by hand to induce mixing. The final concentrations of EtOH and sodium acetate are 20% and 2 mM, respectively.
# Dry compounds are dissolved in the appropriate volume of DMSO to a final concentration of 10 mM. […] All dilutions are performed in DMSO in a Greiner 384-well microplate. • 1. 2 μL of compound in DMSO is added to the appropriate wells. […] 25 μL of enzyme mix is added to all wells and plate(s) are incubated for 10 min at RT. • 3. […] Plate(s) are vortexed using Troemner multi-tube vortexer (setting 7 for 10 sec). • 4. 25 μL of substrate mix is added to all wells. Plate(s) are vortexed using Troemner multi-tube vortexer (setting 7 for 10 sec). Plate(s) are incubated for 30 min at RT. • 5. 10 μL of 20% acetic acid quench is added to all wells. Plate(s) are vortexed using Troemner multi-tube vortexer (setting 7 for 10 sec). • 6. 50 μL of 1-butanol w/ glyceryl tripalmitoleate internal standard is added to all wells. • 7. Plate(s) are sealed with super pierce strong plate sealer using the thermo-sealer. • 8. Plate(s) are vortexed using Troemner multi-tube vortexer (setting 10 for 5 min). • 9. Plate(s) are centrifuged at 162×g (1000 rpm for GH-3.8 rotor) for 5 min using Beckman GS-6R tabletop centrifuge.
# Where indicated, tripalmitolein was used as an internal standard to control for instrument variation.
# Column: Thermo Betabasic 4, 2.1×20 mm
# Solvent: 10 mM Ammonium Formate, 0.1% Formic Acid, 2% water, 98% Methanol
# Isocratic run 0.5 ml per minute
# Data is converted to % inhibition prior to curve fitting using the following equation: […]
IC50 (DGAT1 in C2C12 cells) [nM],IC50 (human (His)6DGAT1) [nM],SMILES
16,120,"CC(C)(C)c1nnc(Nc2ccc(-c3ccc(C45CCC(CC(=O)O)(CC4)CO5)cc3)cc2)o1 [Example 20, 2-(1-(4′-((5-(tert-butyl)-1,3,4-oxadiazol-2-yl)amino)-[1,1′-biphenyl]-4-yl)-2-oxabicyclo[2.2.2]octan-4-yl)acetic acid]"
944,360,"O=C(O)CC12CCC(c3ccc(-c4ccc(Nc5nnc(C6CCC6)o5)cn4)cc3)(CC1)OC2 [Example 21, (1-{4-[5-(5-cyclobutyl-[1,3,4]oxadiazol-2-ylamino)-pyridin-2-yl]-phenyl}-2-oxa-bicyclo[2.2.2]oct-4-yl)-acetic acid]"
296,1700,"CC(C)(C)c1nnc(Nc2ccc(-c3ccc(C45CCC(CC(=O)O)(CC4)O5)cc3)cc2)o1 [Example 22, 2-(4-(4′-((5-(tert-butyl)-1,3,4-oxadiazol-2-yl)amino)-[1,1′-biphenyl]-4-yl)-7-oxabicyclo[2.2.1]heptan-1-yl)acetic acid]"
267,84,"CC(C)(C)c1nnc(Nc2ccc(-c3ccc(C45CCC(CCC(=O)O)(CC4)O5)cc3)cc2)o1 [Example 23, 3-(4-(4′-((5-(tert-butyl)-1,3,4-oxadiazol-2-yl)amino)-[1,1′-biphenyl]-4-yl)-7-oxabicyclo[2.2.1]heptan-1-yl)propanoic acid]"
